# Key:
# [1] = aqueous epinephrine by the IN route, no enhancer; cited from earlier work
# [2] = human; cohort 1 (T2, T4a, Ra)
# rats = assay: in vivo; conditions: rats
# Experimental: (§1) Each rat was treated with two (2) IN administrations of the respective formulations in Groups A1-A5.
# (§2) The analysis of clinical pathology was conducted by a qualified veterinary laboratory (Quality Veterinary Laboratory (QVL), Davis, California, USA).
# (§3) Histopathological evaluation was conducted by a qualified pathology laboratory (Experimental Pathology Laboratories, Inc. (EPL), Sterling, Virginia, USA). […] EPL's histopathological findings were graded from 1 to 5, with 1 as minimal, and 5 as severe, depending upon severity.
# in vivo = conditions: rat, in vivo
# Experimental: as §1, §2, §3
# nasal mucosa of rats = assay: Local toxicity study of STCDC, histopathology of nasal mucosa (Example 5); type: in vivo; conditions: rat; after exposure to STCDC and epinephrine
# Experimental: Example 5 is an animal study designed to investigate the possible histological effects of bile salts (STCDC) on nasal mucosa of rats when the bile salt is used as an absorption enhancer for IN delivery. […] These IN formulations were administered intranasally to the rats. The histopathology of the rat's nasal tissue was examined to evaluate nasal mucosa tolerance to these tested IN formulations.
# In Table 5.1, Group Nos. 2-6 each had excipients of about 8.5 mg/mL sodium chloride, about 3.84 mg/mL citric acid, about 1.5 mg/mL sodium metabisulfite, about 2.3 mg/mL HCl (10% w/v), and a pH adjustor (NaOH) as needed to adjust the pH to 3.6. […]
# In total, EPL assessed 48 types of microscopic findings in nasal turbinate cavity level I through IV, as detailed in Table 5.3. […]
# In order to quantitatively analyze the data for histopathological findings, the three (3) quantities, (i) total observation point (TOP), denoted as TOP, (ii) Average TOP per item per rat, and (iii) average occurrence for Level i (AOL)-i (i=1-5) were analyzed.
# where m1, m2, m3, m4, and m5 are number of findings with Level 1, 2, 3, 4, 5, respectively, from the 48 microscopic histopathological items (as detailed in Table 5.3) assessed by EPL, n is the number of rats examined.
smiles,measurement,setting,value
"CNCC(O)c1ccc(O)c(O)c1 (single isomer, unassigned; (-)) [epinephrine, (-)-3,4-Dihy droxy-α-[(methyl-amino)methyl]benzyl alcohol]","bioavailability (BA) based on AUC in plasma concentration, IN relative to same dose by IM route",[1],approximately 5%
"C[C@H](CCC(=O)NCCS(=O)(=O)[O-])[C@H]1CC[C@H]2[C@@H]3[C@H](O)C[C@@H]4C[C@H](O)CC[C@]4(C)[C@H]3C[C@H](O)[C@]12C.[Na+] [STC, sodium taurocholate]",baseline level of plasma STC,[2],approximately 20 pg/mL
same,"NOAEL for bile salt (STC) at an IN delivery, relative dose","rats; 15 mg/mL x 0.025 mL x 2, body weight 0.298 kg",2.5 mg/kg
same,"NOAEL for the bile salt (STC), concentration","rats; IN administration, highest studied concentration",exceeding 15 mg/mL
same,NOAEL,in vivo,≥ 2.5 mg/kg
"C[C@H](CCC(=O)NCCS(=O)(=O)[O-])[C@H]1CC[C@H]2C3[C@H](O)C[C@@H]4C[C@H](O)CC[C@]4(C)[C@H]3CC[C@]12C.[Na+] (stereo partly drawn) [STCDC, sodium taurochenodeoxycholate]","course of observed nasal toxicity items over time (average TOP, FIG. 6D)",nasal mucosa of rats,nearly normal at two weeks post-dose
